Legend:
[1] = logP by LC-MS on reversed-phase columns (C 18), method [c], neutral range pH 7.8; type: physicochemical
Experimental: (§1) The logP values were determined in accordance with EEC Directive 79/831 Annex V.A8 by HPLC (High Performance Liquid Chromatography) on reversed-phase columns (C 18), using the methods below:
[c] The LC-MS determination in the neutral range is carried out at pH 7.8 using the mobile phases 0.001 molar aqueous ammonium bicarbonate solution and acetonitrile, linear gradient from 10% acetonitrile to 95% acetonitrile.

[2] = logP by LC-MS on reversed-phase columns (C 18), method [b], acidic range pH 2.7; type: physicochemical; details: for chromatographic logP: pH 2.7, log p
Experimental: as §1
[b] The LC-MS determination in the acidic range is carried out at pH 2.7 using the mobile phases 0.1% aqueous formic acid and acetonitrile (contains 0.1% formic acid), linear gradient from 10% acetonitrile to 95% acetonitrile.

[3] = system: Leptosphaeria nodorum; test: Leptosphaeria nodorum test (wheat) / protective; type: in vivo; details: Parastagonospora nodorum, active compound concentration 500 ppm, evaluation 7-9 days after inoculation, read-out: efficacy
Experimental: Thereafter, the plants are placed in a greenhouse at 90% relative atmospheric humidity and a temperature of 22° C.

[4] = method [c], LC-MS, neutral range pH 7.8
[5] = method [b], LC-MS, acidic range pH 2.7

SMILES	chromatographic logP ([1]; pH 7.8)	chromatographic logP [2]	log p ([1]; pH 7.8)	log p ([2]; pH 2.7)	other results
Clc1cnc(Nc2cccc(COc3ccc4c(c3)OCO4)c2)nc1NC1CC1 [Example 230]	–	–	3.87[c]	–	–
CCCC(C)[S+]([O-])C(C)c1cccc(Nc2ncc(C(F)(F)F)c(NC3CC3)n2)c1 (stereo not shown) [Example 167]	–	–	3.85[c];	3.34[b]	–
COCC(C)Oc1ccc(Nc2ncc(C(F)(F)F)c(NC3CC3)n2)cc1Cl (stereo not shown) [Example 78]	–	–	3.99[c];	3.7[b]	–
COCCOc1ccc(Nc2ncc(C(F)(F)F)c(NC3CC3)n2)cc1F [Example 81]	–	–	3.27[c];	2.89[b]	–
CCN(c1nc(Nc2cccc(COC)c2)ncc1Cl)C1CC1 [Example 137]	–	–	4.23[c];	3.24[b]	–
CCCCSc1cccc(Nc2ncc(Br)c(NC3CCC3)n2)c1 [Example 104]	5.71	4.57	–	–	pest or weed control at 500 ppm [3]: ≥ 70%
COCCOC(c1cccc(Nc2ncc(Br)c(NC3CC3)n2)c1)C(F)(F)F (stereo not shown) [Example 217]	–	–	3.76[c];	2.85[b]	–
CCCC[S+]([O-])c1cccc(Nc2ncc(Br)c(NC3CCC3)n2)c1 (stereo not shown) [Example 152]	–	–	3.5[c];	2.67[b]	–
CC[S+]([O-])C(C)c1cccc(Nc2ncc(Cl)c(NC3CC3)n2)c1 (stereo not shown) [Example 74]	2.16	1.48	–	–	pest or weed control at 500 ppm [3]: ≥ 70%
COCCOC(c1cccc(Nc2ncc(Cl)c(NC3CC3)n2)c1)C(F)(F)F (stereo not shown) [Example 215]	–	–	3.61[c];	2.63[b]	–
COCC(C)Oc1ccc(Nc2ncc(C(F)(F)F)c(NC3CC3)n2)cc1C(F)(F)F (stereo not shown) [Example 80]	–	–	4.28[c];	4.05[b]	–
CCCSc1cccc(Nc2ncc(Br)c(NC3CC3C)n2)c1 (stereo not shown) [Example 99]	–	–	–	–	log p [1, 4]: 5.09[c];; log p [2, 5]: 3.83[b]
CCCC(C)S(=O)(=O)C(C)c1cccc(Nc2ncc(Cl)c(NC3CC3)n2)c1 (stereo not shown) [Example 165]	–	–	3.56[c];	2.48[b]	–
CCCS(=O)(=O)c1cccc(Nc2ncc(Br)c(NC3CC3)n2)c1 [Example 110]	2.99	2.43	–	–	pest or weed control at 500 ppm [3]: ≥ 70%
CCCC(C)[S+]([O-])C(C)c1cccc(Nc2ncc(Cl)c(NC3CC3)n2)c1 (stereo not shown) [Example 166]	–	–	3.1[c];	2.2[b]	–
CCOC(C)c1cccc(Nc2ncc(Br)c(NC3CC3C)n2)c1 (stereo not shown) [Example 240]	–	–	–	–	log p [1, 4]: 4.42[c];; log p [2, 5]: 2.89[b]
COC(C)c1cccc(Nc2ncc(Cl)c(NC(C)C3(Cl)CC3)n2)c1 (stereo not shown) [Example 130]	–	–	4.65[c];	3.72[b]	–
COC(COCc1cccc(Nc2ncc(C(F)(F)F)c(NC3CC3)n2)c1)OC [Example 237]	–	–	3.37[c]	–	–
COCc1cccc(Nc2ncc(Cl)c(N3CCCC3)n2)c1 [Example 87]	–	–	3.83[c];	–	–
COCc1cccc(Nc2ncc(Cl)c(N3CCOCC3)n2)c1 [Example 90]	–	–	2.87[c];	2.4[b]	–

SMILES	chromatographic logP ([1]; pH 7.8)	chromatographic logP [2]	log p ([1]; pH 7.8)	log p ([2]; pH 2.7)	other results
COCc1cccc(Nc2ncc(Br)c(NC3CC3C)n2)c1 (stereo not shown) [Example 84]	–	–	–	–	log p [1, 4]: 3.59[c];; log p [2, 5]: 2.15[b]
CCOC(CSc1cccc(Nc2ncc(C(F)(F)F)c(NC3CC3)n2)c1)OCC [Example 236]	–	–	4.55[c]	–	–
COCc1cccc(Nc2ncc(Cl)c(N3CCCCC3)n2)c1 [Example 89]	–	–	4.2[c];	3.14[b]	–
COC(C)c1cccc(Nc2ncc(Br)c(NC3CC3C)n2)c1 (stereo not shown) [Example 226]	–	–	–	–	log p [1, 4]: 3.98[c];; log p [2, 5]: 2.5[b]
COCCOC(c1cccc(Nc2ncc(C(F)(F)F)c(NCC3CC3)n2)c1)C(F)(F)F (stereo not shown) [Example 220]	–	–	4.2[c]	–	–
CCCCS(=O)(=O)c1cccc(Nc2ncc(Cl)c(NC3CC3)n2)c1 [Example 123]	3.18	2.65	–	–	pest or weed control at 500 ppm [3]: ≥ 70%
CCS(=O)(=O)C(C)c1cccc(Nc2ncc(Br)c(NC3CC3)n2)c1 (stereo not shown) [Example 154]	–	–	2.7[c];	1.76[b]	–
CCC(CC)Nc1nc(Nc2cccc(COC)c2)ncc1Cl [Example 144]	–	2.3	–	–	pest or weed control at 500 ppm [3]: ≥ 70%
CCCC(C)SC(C)c1cccc(Nc2ncc(C(F)(F)F)c(NC3CC3)n2)c1 (stereo not shown) [Example 135]	–	–	5.8[c];	5.53[b]	–
CCSC(C)c1cccc(Nc2ncc(C(F)(F)F)c(NC3CCCC3)n2)c1 (stereo not shown) [Example 37]	–	5.2	–	–	pest or weed control at 500 ppm [3]: ≥ 70%
CCCC(C)SC(C)c1cccc(Nc2ncc(Cl)c(NC3CC3)n2)c1 (stereo not shown) [Example 134]	–	–	5.55[c];	4.24[b]	–
CCCC[S+]([O-])c1cccc(Nc2ncc(C(F)(F)F)c(NC3CC3)n2)c1 (stereo not shown) [Example 122]	3.02	2.94	–	–	–
CCOCCOCCSc1cccc(Nc2ncc(Cl)c(NC3CC3)n2)c1 [Example 180]	–	–	3.63[c];	2.58[b]	–
COCCOCCOc1ccc(Nc2ncc(C(F)(F)F)c(NC3CC3)n2)cc1C(F)(F)F [Example 182]	–	–	3.79[c];	3.52[b]	–
COCCOc1ccc(Nc2ncc(Cl)c(NC3CC3)n2)cc1Cl [Example 68]	–	2.12	–	–	pest or weed control at 500 ppm [3]: ≥ 70%
COCC(C)Oc1ccc(Nc2ncc(C(F)(F)F)c(NC3CC3)n2)cc1 (stereo not shown) [Example 88]	–	–	3.45[c];	2.71[b]	–
Clc1cnc(Nc2cccc(COc3ccccc3)c2)nc1NC1CC1 [Example 50]	–	2.92	–	–	pest or weed control at 500 ppm [3]: ≥ 70%
CCCCSc1cccc(Nc2ncc(C(F)(F)F)c(NC3CCC3)n2)c1 [Example 128]	5.78	5.55	–	–	pest or weed control at 500 ppm [3]: ≥ 70%
COCCOC(c1cccc(Nc2ncc(C(F)(F)F)c(NC3CC3)n2)c1)C(F)(F)F (stereo not shown) [Example 216]	–	–	3.9[c];	3.72[b]	–

Now from value to compound, other results behind:

chromatographic logP ([1]; pH 7.8)	chromatographic logP [2]	SMILES	log p ([1]; pH 7.8)	log p ([2]; pH 2.7)	other results
5.27	4.89	CCSc1cccc(Nc2ncc(C(F)(F)F)c(NC3CCC3C)n2)c1 (stereo not shown) [Example 233]	–	–	–
4.1	3.61	COC(C)c1cccc(Nc2ncc(C(F)(F)F)c(NC3CC3C)n2)c1 (stereo not shown) [Example 229]	–	–	pest or weed control at 500 ppm [3]: ≥ 70%
3.26	2	COCCOC(C)c1cccc(Nc2ncc(Cl)c(NC3CC3)n2)c1 (stereo not shown) [Example 243]	–	–	–
3.23	2.64	CC(C)CS(=O)(=O)c1cccc(Nc2ncc(Cl)c(NC3CC3)n2)c1 [Example 161]	–	–	pest or weed control at 500 ppm [3]: ≥ 70%
5.3	3.59	CCSC(C)c1cccc(Nc2ncc(Cl)c(NC3CCC3C)n2)c1 (stereo not shown) [Example 259]	–	–	–
5.01	4.9	CCC(C)Sc1cccc(Nc2ncc(C(F)(F)F)c(NC3CC3)n2)c1 (stereo not shown) [Example 188]	–	–	pest or weed control at 500 ppm [3]: ≥ 70%
3.61	3.43	CCCS(=O)(=O)c1cccc(Nc2ncc(C(F)(F)F)c(NC3CC3C)n2)c1 (stereo not shown) [Example 245]	–	–	–
3.98	3.49	COCCCOC(C)c1cccc(Nc2ncc(C(F)(F)F)c(NC3CC3)n2)c1 (stereo not shown) [Example 254]	–	–	–
4.12	3.6	CCOC(C)c1cccc(Nc2ncc(C(F)(F)F)c(NC3CC3)n2)c1 (stereo not shown) [Example 258]	–	–	–
5.34	4.09	CCSc1cccc(Nc2ncc(C(F)(F)F)c(NC3CC(C)C3)n2)c1 (stereo not shown) [Example 234]	–	–	pest or weed control at 500 ppm [3]: ≥ 70%
5.23	4.9	CCCSc1cccc(Nc2ncc(C(F)(F)F)c(NC3CC3C)n2)c1 (stereo not shown) [Example 235]	–	–	pest or weed control at 500 ppm [3]: ≥ 70%
4	2.91	CCOCCOc1ccc(Nc2ncc(Cl)c(NC3CC3)n2)cc1C(F)(F)F [Example 185]	–	–	–
3.32	2.98	CC[S+]([O-])c1cccc(Nc2ncc(C(F)(F)F)c(NC3CC(C)C3)n2)c1 (stereo not shown) [Example 242]	–	–	–
5.43	5.01	CCCSc1cccc(Nc2ncc(C(F)(F)F)c(NC3CCC3)n2)c1 [Example 155]	–	–	pest or weed control at 500 ppm [3]: ≥ 70%
3.23	2.9	CCC[S+]([O-])c1cccc(Nc2ncc(C(F)(F)F)c(NC3CC3C)n2)c1 (stereo not shown) [Example 246]	–	–	–
3.69	3.09	CCCCS(=O)(=O)c1cccc(Nc2ncc(Cl)c(NC3CCC3)n2)c1 [Example 170]	–	–	pest or weed control at 500 ppm [3]: ≥ 70%
3.61	3.05	COCCOC(C)c1cccc(Nc2ncc(C(F)(F)F)c(NC3CC3)n2)c1 (stereo not shown) [Example 257]	–	–	–
4.01	3.91	CCCCS(=O)(=O)c1cccc(Nc2ncc(C(F)(F)F)c(NC3CCC3)n2)c1 [Example 202]	–	–	pest or weed control at 500 ppm [3]: ≥ 70%
4.09	–	CCOC(COCc1cccc(Nc2ncc(C(F)(F)F)c(NC3CC3)n2)c1)OCC [Example 238]	–	–	–
3.3	2.9	CC[S+]([O-])c1cccc(Nc2ncc(C(F)(F)F)c(NC3CCC3C)n2)c1 (stereo not shown) [Example 244]	–	–	–
3.76	2.7	CCOCCSc1cccc(Nc2ncc(Cl)c(NC3CC3)n2)c1 [Example 189]	–	–	pest or weed control at 500 ppm [3]: ≥ 70%
2.44	1.18	CNc1nc(Nc2cccc(COC)c2)ncc1Cl [Example 172]	–	–	–
